Laboratory results taken from US8592394B2, “Synthetic derivatives beta glycolipids and compositions thereof for the treatment of pathologic disorders” (Enzo Therapeutics, Inc., priority 2003, dated 2013).

Legend:
[1] = system: mouse splenocytes; assay: In vitro stimulation of splenocytes: supernatant IFN-γ by ELISA; assay type: cell-based
Description: Splenocytes were prepared as described above and plated at 2.0×10^5 cells per well in 96-well plates in RPMI-1640 supplemented with 5% FCS, […] 2-mercaptoethanol, 2 mM glutamine, 1% sodium pyruvate, and antibiotics. Titrated volumes of GC, α-GalCer, and ALIB-97 diluted in DMSO were added at final concentrations of 100 ng, 1 μg, and 10 μg/ml. After 72 h of culture, 1 μCi of [^3H] thymidine (Amersham Biosciences) was added to each well, and the cells were cultured for an additional 16 to 18 h. Cells were harvested with a cell harvester (Tomtec, Orange, Conn.), and the uptake of radioactivity was measured with a β-plate reader. To evaluate IFN-γ secretion in vitro, supernatants were harvested after 90 h of culture with glycolipids and stored until the cytokine levels were measured by ELISA.

[2] = system: ob/ob mice; assay: Fasting glucose and glucose tolerance test in ob/ob mice; assay type: in vivo
Description: Mice underwent a glucose tolerance test (GTT) on day 30 after overnight fasting. Glucose was administered orally (1.25 g per kg). Serum glucose measurements were performed on tail-vein blood every 15 min for 3 h. Glucose levels were measured by a standard glucometer.
Therefore, five groups of male C57BL/6 Ob/Ob mice were studied. Mice (6 per group) were fed (per os) daily for 4 weeks with 15 or 45 μg of GC (groups B and C, respectively) and 15 or 45 μg of ALIB-97 (groups D and E, respectively). Control mice (Group A) were administered vehicle only.

[3] = system: IL-10; assay: Serum IL-10 by ELISA in ConA induced hepatitis; assay type: in vivo, mice; settings: for serum IL-10: intraperitoneal
Description: (§1) Serum levels of IFN-γ, TGF-β, TNF-α IL-2, IL-4, IL-6, IL-10 and IL-12 were determined by “sandwich” ELISA, using commercial kits (Quantikine, R&D Systems, Minneapolis, Minn., USA). Serum insulin was also determined by “sandwich” ELISA too, using the commercial kit of Mercodia AB (Uppsala, Sweden) according to the manufacturer's instructions.

[4] = system: IL-4; assay: Serum IL-4 by ELISA in ConA induced hepatitis; assay type: in vivo, mice; settings: intraperitoneal, data not shown
Description: as §1

[5] = system: STAT4; assay: Immunoblot of liver lysates: STAT4; assay type: in vivo, mice; settings: IP
Description: For ConA induced hepatitis experiments spleen and liver lysates were lysed in RIPA buffer containing 50 mM Tris, pH 7.4, 1% NP-40, 150 mM NaCl, 0.1% SDS, 0.5% sodium deoxycholate and protease inhibitors (5 μg/ml, Sigma), with protease and phosphatase (Sigma, Rehovot, Israel).
Lysates were centrifuged twice at 4° C. for 10 minutes in 14000 rpm. Equivalent amounts of lysates (15 μg/lane), determined by Bradford assay (Bio-Rad, Rehovot, Israel), were separated by sodium dodecyl sulfate polyacrylamide gel electrophoresis (SDS-PAGE) and transferred to nitrocellulose membranes.
Blots were developed with horseradish peroxidase-conjugated secondary antibodies (Jackson Laboratories Bar Harbor, Me.) and Western Blot-Luminol Reagent (Santa Cruz Biotechnology, CA, USA). Cell counting and western Blot quantification was performed using total Lab (Phoretix, USA) software.

[6] = system: IFN-γ; assay: Serum IFN-γ by sandwich ELISA in ConA induced hepatitis; assay type: in vivo, mice
Description: as §1
Assessment of the effect of any of the synthetic analogs on the immune response was next determined by analysis of the cytokine serum level of IFNγ in each animal using a commercial “sandwich” ELISA kit, and by FACS analysis of intrahepatic and intrasplenic (peripheral) lymphocytes levels.

[7] = system: ConA induced hepatitis; assay: ConA induced hepatitis model: serum AST and ALT (liver injury); assay type: in vivo, mice; settings: for enzyme levels (serum ALT and AST): Con A
Description: The effect of β-glycolipids on liver injury was evaluated by serum aspartyl transaminase (AST) and alanine aminotransferase (ALT) activities, which were determined by a clinical chemistry analyzer, Reflovet Plus (Roche Diagnostics, GmbH, Mannheim, Germany).
Con A was purchased from MP Biomedicals (Ohio, USA), was dissolved (0.5 mg, 20 mg/kg) in 200 μl of 50 mM Tris pH 7, 150 mM NaCl, 4 mM CaCl2, and was injected intravenously into mice (tail vain). Sera from individual mice were obtained 8 or 20 h after Con A injection. Serum activities of alanine aminotransferase (ALT) and aspartate aminotransferase (AST) were measured by an automatic analyzer.
To determine the clinical and immunological effect of the novel synthetic compounds of the invention, immune-mediated hepatitis was examined using the ConA induced hepatitis model. Therefore, the different synthetic and natural derivatives of β-glycolipids of Formula II, III and IV [AD2897 (ALIB-97), AD2898, and AD2899, respectively], were examined using seven groups of C57Bl/6 mice, as summarized by Table 1. Mice in experimental groups A-G (eight mice in each group) were injected with ConA. Group A mice were administered with 100 μl intraperitoneal injection of solvent only [15% Cremophor EL/15% ethanol/70% PBS](C:E). Mice in groups B, C, D, E, F, and G were administered with intraperitoneal injection of 1 μg or 10 μg of each of the three analogs Formulated in solvent as described in Experimental Procedures. Animals were sacrificed and examined.
In order to evaluate the potential beneficial effect of the three novel analogues of the invention on immune-mediated hepatitis, the effect of treatment with two concentrations of the three synthetic analogs on liver damage in all tested groups was assessed by determination of serum aspartate aminotransferase (AST), and alanine aminotransferase (ALT) levels.

[8] = system: IL-6; assay: Serum IL-6 by ELISA in ConA induced hepatitis; assay type: in vivo, mice; settings: intraperitoneal
Description: as §1

[9] = B6 mice, intraperitoneal, Con A hepatitis, p<0.05
[10] = B6 mice, oral administration, 20 h after Con A injection, vs control p<0.01
[11] = ConA induced hepatitis, C57Bl/6 mice, intraperitoneal, 10 μg/mice

## CCCCCCCCCCCCCC=CC(O)C(CO[C@@H]1OC(CO)[C@@H](O)C(O)C1O)NC(=S)NC12CC3CC(CC(C3)C1)C2 (stereo in doubt) [ALIB-97, N-adamantyl-N′-glucosylsphingosine thiourea]
[1]; CD1d−/− splenocytes
  IFN-γ secretion: absence
[1]; Jα18−/− splenocytes
  IFN-γ secretion: absence
[1]; mouse (B6) splenocytes, 100 ng
  activation of IFN-γ secretion: more than 9 fold
[2]; day 30, 15 μg per os daily
  time at which the decrease in glucose levels (GTT, relative to time 0) reached statistical significance: 90 min
[2]; day 30, 45 μg per os daily
  time at which the decrease in glucose levels (GTT, relative to time 0) reached statistical significance: 60 min
[3]; B6 mice
  serum IL-10: increased
[3]; B6 mice, oral administration, after 20 hours
  IL-10 serum levels: Decreased
[3]; CD1d−/− mice
  serum IL-10: increased
[3]; Jα18−/− mice
  serum IL-10: increased
[4]
  serum levels of IL-4: did not affect
[5]; B6 mice
  STAT4 expression in the liver: strikingly decreased
[5]; CD1d−/− mice
  STAT4 expression in the liver: remained unchanged
[6]; B6 mice, intraperitoneal
  serum IFN-γ levels: marked decrease
[6]; B6 mice, oral administration, after 20 hours, vs control p<0.01
  serum IFN-γ levels: significant decrease
[6]; CD1d−/− KO mice, intraperitoneal
  serum IFN-γ levels: did not significantly alter
[6]; ConA induced hepatitis, C57Bl/6 mice, intraperitoneal, low dosage 1 μg/mice
  IFNγ serum levels: decrease
[6]; Jα18−/− mice, intraperitoneal
  serum IFN-γ levels: substantial increase
[7]; [9]
  reduction of serum ALT levels: more than 60%
  reduction of serum AST levels: more than 60%
[7]; [10]
  serum ALT levels: significantly reduced
  serum AST levels: significantly reduced
[7]; CD1d−/− mice, intraperitoneal
  enzyme levels (serum ALT and AST): did not significantly alter
[7]; [11]
  serum ALT levels: decreased
  serum AST levels: decreased
[7]; Jα18 KO mice
  liver damage induced by Con A treatment: exacerbated
[7]; Jα18−/− mice, intraperitoneal
  enzyme levels (serum ALT and AST): did not significantly alter
[8]; B6 mice
  serum IL-6 levels: reduced
[8]; Jα18−/− mice
  serum IL-6 levels: reduced
